Test results published in PubChem BioAssay AID1963427 (Molecular Pharmacology Branch, DTP, NCI, 2024).

System: 317291-083-R-J1-PDC complex spheroid growth
Assay: Anticancer human tumor 317291-083-R-J1-PDC patient-derived soft tissue sarcoma cell line growth inhibition [Asc]
Settings: for IC50: curve of first compound; for viability, T/C: stronger effect = lower value; active means viability on the fitted dose curve at most 10% of control; inactive means the rest
Description: Multicellular complex tumor spheroid response to apoptosis pathway targeting inhibitors Alrizomadlin, Pelcitoclax, and Dasminapant in combination with a variety of drugs and investigational agents in selected tumor cell lines
The MDM2 inhibitor alrizomadlin, the Bcl-2/Bcl-xL inhibitor pelcitoclax, and the IAPs inhibitor dasminapant were evaluated both individually and in combination with standard of care and investigational anticancer small molecules within a complex spheroid model of solid tumors. . Complex spheroids include a stromal component modeled by human endothelial cells (HUVEC) and fibroblasts modeled by human mesenchymal stem cells (MSCs). The concentration ranges selected for each drug and investigational agent were based upon clinically achievable concentrations if the clinical Cmax of the agent was known.
Compounds. The drugs and investigational agents: alrizomadlin (APG-115; NSC831270), pelcitoclax (APG-1252; NSC835773), dasminapant (APG-1387;NSC834197), TAK-243 (NSC785004), copanlisib (NSC809693), olaparib (NSC753686), talazoparib (NSC767125), cobimetinib (NSC 768068), eltanexor (KPT-8602, NSC 794443), abemaciclib (NSC 768073), sotorasib (NSC818433), adagrasib (NSC 831453), MRTX-1133 (NSC 836407), Iadademestat (ORY1001, NSC 806812), and RMC-4630 (NSC839698), were obtained from the NCI Developmental Therapeutics Program Chemical Repository. The FDA-approved anticancer drug set is available from the Developmental Therapeutics Program at https://dtp.cancer.gov/organization/dscb/obtaining/available plates.htm. […] The stock solutions were prepared in dimethyl sulfoxide (DMSO, Sigma-Aldrich, St. Louis, MO, cat. D2650) at 800-fold the tested concentration and stored at -70 degrees C prior to their use. All drugs and investigational agents were tested over a range starting from a high concentration at or near the clinical Cmax and decreasing in half-log increments. If the clinical Cmax for an agent had not been determined, the highest concentration tested was 10 microM.
The patient-derived cancer (PDC) cell lines include five colon adenocarcinomas: 186277-243-T-J2-PDC, 616215-338-R-J1-PDC, 439559-082-T-J2-PDC, 463943-066-T-J2-PDC, and 519858-162-T-J1-PDC; three pancreatic carcinomas: 323965-272-R-J2-PDC, 521955-158-R6-J3-PDC, and 521955-158-R2-J5-PDC; two uterine sarcomas: 327498-152-R-J2-PDC and 993429-296-R-J1-PDC; two rhabdomyosarcomas: 755483-174-R-J1-PDC and 772245-204-R-J1-PDC; two soft tissue sarcomas: 126254-015-R-J1-PDC and 494315-158-R-J1-PDC; two malignant fibrous histiocytomas: 317291-083-R-J1-PDC and 596521-263-R-J1-PDC; two breast carcinomas: 171881-019-R-J1-PDC and 885512-296-R-J2-PDC; and one ovarian carcinoma: 6556581-035-R-J-PDC were obtained from the NCI PDMR, (https://pdmr.cancer.gov). The established cell lines HSSY-2 synovial sarcoma (RRID:CVCL 8719), SYO-1 synovial sarcoma (RRID:CVCL_7146), MPNST malignant peripheral neural sheath tumor were obtained from the Sloan Kettering Institute. The following established cell lines were purchased from the American Type Culture Collection (ATCC, Manassas, VA), Sor the received from the NCI repository:, PANC-1 pancreatic carcinoma (CRL-1469, RRID:CVCL_0480), OVCAR-5 ovarian carcinoma (RRID:CVCL_1628), OVCAR-8 ovarian carcinoma (RRID:CVCL_1629), , MCF-7 breast carcinoma (CRL-12584, RRID:CVCL_0031), MDA-MB-231 breast carcinoma (CRL-12532, RRID:CVCL_0062), NCI-H1876 small cell lung carcinoma (CRL-5902, RRID:CVCL_1503), NCI-H510A small cell lung carcinoma (HTB-184, RRID:CVCL_1565), NCI-H1417 (CRL-5869, RRID:CVCL_1469), and NCI-H196 small cell lung carcinoma (CRL-5823, RRID:CVCL_1509). Dr. Peter Houghton (Greehey Children's Cancer Research Institute, University of Texas Health Science Center, San Antonio, TX) provided Rh-18 rhabdomyosarcoma (RRID:CVCL_1659). Pooled donor human umbilical vein endothelial cells (HUVEC, Lonza, cat. CC-2519) and human mesenchymal stem cells (hMSC, Lonza, cat. PT-2501) were purchased from Lonza (Walkersville, MD).
Cell Culture. […]

[1] = second compound 0.00949 µM, first compound 0.00316 µM
[2] = second compound 0.00949 µM, first compound 0.01 µM
[3] = second compound 0.00949 µM, first compound 0.0316 µM
[4] = second compound 0.00949 µM, first compound 0.1 µM
[5] = second compound 0.00949 µM, first compound 0.316 µM
[6] = second compound 0.00949 µM, first compound 1 µM
[7] = second compound 0.03 µM, first compound 0.00316 µM
[8] = second compound 0.03 µM, first compound 0.01 µM
[9] = second compound 0.03 µM, first compound 0.0316 µM
[10] = second compound 0.03 µM, first compound 0.1 µM
[11] = second compound 0.03 µM, first compound 0.316 µM
[12] = second compound 0.03 µM, first compound 1 µM
[13] = second compound 0.0949 µM, first compound 0.00316 µM
[14] = second compound 0.0949 µM, first compound 0.01 µM
[15] = second compound 0.0949 µM, first compound 0.0316 µM
[16] = second compound 0.0949 µM, first compound 0.1 µM
[17] = second compound 0.0949 µM, first compound 0.316 µM
[18] = second compound 0.0949 µM, first compound 1 µM
[19] = second compound 0.3 µM, first compound 0.00316 µM
[20] = second compound 0.3 µM, first compound 0.01 µM
[21] = second compound 0.3 µM, first compound 0.0316 µM
[22] = second compound 0.3 µM, first compound 0.1 µM
[23] = second compound 0.3 µM, first compound 0.316 µM
[24] = second compound 0.3 µM, first compound 1 µM
[25] = second compound 0.949 µM, first compound 0.00316 µM
[26] = second compound 0.949 µM, first compound 0.01 µM
[27] = second compound 0.949 µM, first compound 0.0316 µM
[28] = second compound 0.949 µM, first compound 0.1 µM
[29] = second compound 0.949 µM, first compound 0.316 µM
[30] = second compound 0.949 µM, first compound 1 µM
[31] = second compound 3 µM, first compound 0.00316 µM
[32] = second compound 3 µM, first compound 0.01 µM
[33] = second compound 3 µM, first compound 0.0316 µM
[34] = second compound 3 µM, first compound 0.1 µM
[35] = second compound 3 µM, first compound 0.316 µM
[36] = second compound 3 µM, first compound 1 µM
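Further: compound exposure lasted seven days after spheroids formed for three days.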
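Wherever viability, T/C is given: 100% = DMSO vehicle control wells.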

CCN1CCN(Cc2ccc(Nc3ncc(F)c(-c4cc(F)c5nc(C)n(C(C)C)c5c4)n3)nc2)CC1 + CCN1C(C(=O)NC23CCC(C(=O)O)(CC2)CC3)C(c2cccc(Cl)c2F)C2(C(=O)Nc3cc(Cl)ccc32)C12CCCCC2
> 1000 nM: IC50 (second compound 0.00949 µM) | IC50 (second compound 0.03 µM) | IC50 (second compound 0.3 µM) | IC50 (second compound 3 µM)
inactive: viability, T/C [1] 95% | viability, T/C [2] 95.8% | viability, T/C [3] 100% | viability, T/C [4] 115% | viability, T/C [5] 91.2% | viability, T/C [6] 55.4% | viability, T/C [7] 99.7% | viability, T/C [8] 101% | viability, T/C [9] 97.9% | viability, T/C [10] 103% | viability, T/C [11] 80.1% | viability, T/C [12] 53% | viability, T/C [13] 97.7% | viability, T/C [14] 89.3% | viability, T/C [15] 97% | viability, T/C [16] 112% | viability, T/C [17] 88.4% | viability, T/C [18] 41.6% | viability, T/C [19] 100% | viability, T/C [20] 93.1% | viability, T/C [21] 80.6% | viability, T/C [22] 86.4% | viability, T/C [23] 68.1% | viability, T/C [24] 79.6% | viability, T/C [25] 106% | viability, T/C [26] 96.7% | viability, T/C [27] 79.1% | viability, T/C [28] 91.1% | viability, T/C [29] 73.1% | viability, T/C [30] 44.5% | viability, T/C [31] 77.5% | viability, T/C [32] 77% | viability, T/C [33] 78.9% | viability, T/C [34] 72.2% | viability, T/C [35] 56.6% | viability, T/C [36] 60.9%
814 nM: IC50 (second compound 0.0949 µM)
837 nM: IC50 (second compound 0.949 µM)

O=C(c1ccc(F)c(F)c1Nc1ccc(I)cc1F)N1CC(O)([C@@H]2CCCCN2)C1 + CCN1C(C(=O)NC23CCC(C(=O)O)(CC2)CC3)C(c2cccc(Cl)c2F)C2(C(=O)Nc3cc(Cl)ccc32)C12CCCCC2
528 nM: IC50 (second compound 0.949 µM)
389 nM: IC50 (second compound 3 µM)
448 nM: IC50 (second compound 0.03 µM)
549 nM: IC50 (second compound 0.0949 µM)
526 nM: IC50 (second compound 0.3 µM)
540 nM: IC50 (second compound 0.00949 µM)
inactive: viability, T/C [1] 101% | viability, T/C [2] 89% | viability, T/C [3] 106% | viability, T/C [4] 101% | viability, T/C [5] 71.9% | viability, T/C [6] 24.8% | viability, T/C [7] 91.2% | viability, T/C [8] 94.8% | viability, T/C [9] 85% | viability, T/C [10] 117% | viability, T/C [11] 64.9% | viability, T/C [12] 15.8% | viability, T/C [13] 103% | viability, T/C [14] 90.8% | viability, T/C [15] 98.2% | viability, T/C [16] 113% | viability, T/C [17] 69.8% | viability, T/C [18] 28.4% | viability, T/C [19] 124% | viability, T/C [20] 95.1% | viability, T/C [21] 86.3% | viability, T/C [22] 107% | viability, T/C [23] 71.4% | viability, T/C [24] 23% | viability, T/C [25] 105% | viability, T/C [26] 105% | viability, T/C [27] 114% | viability, T/C [28] 104% | viability, T/C [29] 72.2% | viability, T/C [30] 22.4% | viability, T/C [31] 105% | viability, T/C [32] 92.7% | viability, T/C [33] 96.8% | viability, T/C [34] 90.2% | viability, T/C [35] 55.4% | viability, T/C [36] 24.8%
